# Experimental data reported in US5075322A, “Selenophen derivatives, a preparation process of the same and therapeutical compositions containing them” (Societe de Conseils de Recherches et d'Applications …, priority 1989, dated 1991).
# Experiments:
# [1] = system: ovalbumine-induced bronchospasm; experiment: ovalbumine-induced bronchoconstriction in passively sensitized rats; format: in vivo; conditions: for Percentage of bronchoconstriction / Percentage of effect: Table IV
# Text: (§1) The different symbols NS, *, ** and *** which may be found in the different tables, mean that the result is respectively not significative, significative, very significative and highly significative.
# [2] = system: B.S.A.-induced immune lethality in mice; experiment: B.S.A.-induced immune lethality (anaphylactic shock) in actively sensitized mice; format: in vivo
# Text: as §1
# At the same dose, ketotifen has no effect.
# rat washed platelets = experiment: PAF-induced aggregation of rat washed platelets in vitro; format: cell-based; conditions: Platelet, PAF 5.10^-10 M
# Text: In vitro: effects on aggregation (IC50) induced by PAF (5·10^-10 M), rat washed platelets are as follow: IC50 Compound XI 2.10^-6 M. IC50 Ketotifen 10^-5 M.
# PAF induced bronchospasm = experiment: PAF-induced bronchospasm in artificially-ventilated anaesthetized guinea pigs; format: in vivo; conditions: for Percentage of bronchoconstriction / Percentage of effect: Table VII, PAF 60 mg/kg IV
# Text: as §1
# [3] = system: histamine induced bronchospasm; experiment: histamine-induced bronchospasm in artificially ventilated anaesthetized guinea pigs; format: in vivo; conditions: for % of bronchoconstriction / % of effect: Table V, 0.1 mg/kg PO
# Method: as §1
# The kinetic results of the administration of compound XI and ketotifen by oral route at 0.1 mg/kg (P.O.), 1 to 27 h histamine injection (15 mg IV), are reported in table 5.
# [4] = system: ovalbumine-induced bronchospasm; experiment: ovalbumine-induced bronchospasm in anaesthetized passively sensitized guinea-pigs; format: in vivo
# Method: In the ovalbumine-induced bronchospasm in anaesthetized passively sensitized guinea-pigs, compound XI and ketotifen, administered 1 hour before the injection of ovalbumine, inhibit the bronchoconstriction (>90%) in a dose-dependant-manner respectively with following ED50 (P.O.)
# For both products, the activity disappears at 24 hours.
# The kinetic results, after administration by oral route of the said compounds at 0.1 mg/kg and 0.05 mg/kg (P.O.), for 1 to several hours before ovalbumine injection (1 mg/kg), are reported respectively in tables 1 and 2.
# as §1
# [5] = system: ovalbumine-induced bronchospasm; experiment: ovalbumine-induced bronchospasm in actively sensitized guinea pigs; format: in vivo; conditions: Table III, 0.1 mg/kg PO
# Text: as §1
# [6] = system: histamine induced bronchospasm; experiment: histamine-induced bronchospasm in artificially ventilated anaesthetized guinea pigs; format: in vivo; conditions: Cavia porcellus, po; administered 1 hour before histamine (15 mg IV), P.O.; read-out: ED 50 (P.O.)
# [7] = Table I, 0.1 mg/kg PO, pretreatment 1 h
# [8] = Table I, 0.1 mg/kg PO, pretreatment 3 h
# [9] = Table I, 0.1 mg/kg PO, pretreatment 6 h
# [10] = Table I, 0.1 mg/kg PO, pretreatment 9 h
# [11] = Table I, 0.1 mg/kg PO, pretreatment 15 h
# [12] = Table I, 0.1 mg/kg PO, pretreatment 18 h
# [13] = Table I, 0.1 mg/kg PO, pretreatment 21 h
# [14] = Table I, 0.1 mg/kg PO, pretreatment 24 h
# [15] = Table II, 0.05 mg/kg PO, pretreatment 1 h
# [16] = Table II, 0.05 mg/kg PO, pretreatment 3 h
# [17] = Table II, 0.05 mg/kg PO, pretreatment 6 h
# [18] = Table II, 0.05 mg/kg PO, pretreatment 9 h
# [19] = Table II, 0.05 mg/kg PO, pretreatment 15 h
# [20] = Table II, 0.05 mg/kg PO, pretreatment 18 h
# [21] = Table II, 0.05 mg/kg PO, pretreatment 21 h
structure (smiles),measurement,setting,value
COc1ccc(CCN2CCC(Nc3nc4ccccc4n3Cc3ccc(F)cc3)CC2)cc1 [Astemizole],Percentage of bronchoconstriction,[1]; 5 mg/kg PO,8.6 ± 2.5%
same,Percentage of effect,[1]; 5 mg/kg PO,-76.0%
c1ccc2c(c1)Sc1ccccc1N2CC1CN2CCC1CC2 (stereo not drawn) [Mequitazine],"Mortality at 24 hours, % of mortality",[2]; 2.5 mg/kg PO,30%
same,"Mortality at 24 hours, % of variation",[2]; 2.5 mg/kg PO,-51.2%
same,"Mortality at 24 hours, number of killed",[2]; 2.5 mg/kg PO,3/10
same,"Mortality at 24 hours, % of mortality",[2]; 10 mg/kg PO,30%
same,"Mortality at 24 hours, % of variation",[2]; 10 mg/kg PO,-51.2%
same,"Mortality at 24 hours, number of killed",[2]; 10 mg/kg PO,3/10
CN1CCC(=C2c3ccccc3CC(=O)c3sccc32)CC1 [ketotifen],IC50,rat washed platelets,10 µM
same,inhibition of PAF induced bronchospasm (in words),"PAF induced bronchospasm; 1 hour before PAF, 0.1 mg/kg",less active
same,Percentage of bronchoconstriction,PAF induced bronchospasm; 0.1 mg/kg PO,63.5 ± 9.6%
same,Percentage of effect,PAF induced bronchospasm; 0.1 mg/kg PO,-18.9%
same,Percentage of bronchoconstriction,PAF induced bronchospasm; 1 mg/kg PO,26.2 ± 14.8%
same,Percentage of effect,PAF induced bronchospasm; 1 mg/kg PO,-66.5%
same,% of bronchoconstriction,[3]; 1 h,2.1 ± 0.8%
same,% of effect,[3]; 1 h,-97.4 ± 1.0%
same,% of bronchoconstriction,[3]; 3 h,0%
same,% of effect,[3]; 3 h,-100 ± 0%
same,% of bronchoconstriction,[3]; 6 h,18.2 ± 13.3%
same,% of effect,[3]; 6 h,-77.8 ± 16.2%
same,% of bronchoconstriction,[3]; 9 h,22.1 ± 14.1%
same,% of effect,[3]; 9 h,-71.5 ± 14.1%
same,% of bronchoconstriction,[3]; 15 h,51.4 ± 16.7%
same,% of effect,[3]; 15 h,-26.9 ± 16.7%
same,% of bronchoconstriction,[3]; 18 h,54.6 ± 13.3%
same,% of effect,[3]; 18 h,-39.8 ± 14.8%
same,% of bronchoconstriction,[3]; 21 h,46.6 ± 14.9%
same,% of effect,[3]; 21 h,-44.9 ± 17.6%
same,% of bronchoconstriction,[3]; 24 h,63.7 ± 15.1%
same,% of effect,[3]; 24 h,-3.0 ± 23.1%
same,% of bronchoconstriction,[3]; 27 h,83.4 ± 5.9%
same,inhibition of bronchoconstriction (in words),[3]; administered 1 hour before histamine (15 mg IV),inhibit significantly the bronchoconstriction in a dose-dependant-manner
same,duration of maximum effect,"[3]; during only the first hours, 0.1 mg/kg P.O.",3 h
same,time at which the activity disappears,[4]; 0.1 mg/kg and 0.05 mg/kg P.O.,24 h
same,ED50,"[4]; Cavia porcellus, po, administered 1 hour before ovalbumine, P.O., passively sensitized guinea-pigs, read-out: ED50 (P.O.)",0.0941 µmol/kg
same,% of bronchoconstriction,[4]; [7],8.3 ± 3.2%
same,% of effect,[4]; [7],-90.2 ± 3.8%
same,% of bronchoconstriction,[4]; [8],7.3 ± 3.0%
same,% of effect,[4]; [8],-88.3 ± 4.8%
same,% of bronchoconstriction,[4]; [9],31.9 ± 17.9%
same,% of effect,[4]; [9],-48.8 ± 28.8%
same,% of bronchoconstriction,[4]; [10],66.9 ± 19.7%
same,% of effect,[4]; [10],-25.1 ± 22.0%
same,% of bronchoconstriction,[4]; [11],77.5 ± 10.6%
same,% of effect,[4]; [11],-5.9 ± 13.3%
same,% of bronchoconstriction,[4]; [12],54.0 ± 18.6%
same,% of effect,[4]; [12],-44.3 ± 19.2%
same,% of bronchoconstriction,[4]; [13],88.3 ± 7.6%
same,% of effect,[4]; [13],-8.8 ± 7.9%
same,% of bronchoconstriction,[4]; [14],67.3 ± 15.0%
same,% of effect,[4]; [14],+8.3 ± 24.0%
same,% of bronchoconstriction,[4]; [15],44.9 ± 15.9%
same,% of effect,[4]; [15],-49.2%
same,% of bronchoconstriction,[4]; [16],5.7 ± 1.7%
same,% of effect,[4]; [16],-93.6%
same,% of bronchoconstriction,[4]; [17],82.9 ± 14.0%
same,% of effect,[4]; [17],-14.3%
same,% of bronchoconstriction,[4]; [18],80.3 ± 19.7%
same,% of effect,[4]; [18],-17.1%
same,% of bronchoconstriction,[4]; [19],64.3 ± 18.3%
same,% of effect,[4]; [19],-2.4%
same,% of bronchoconstriction,[4]; [20],100 ± 0%
same,% of effect,[4]; [20],+2.0%
same,% of bronchoconstriction,[4]; [21],94.4 ± 3.2%
same,% of effect,[4]; [21],-3.2%
same,inhibition of bronchoconstriction,"[4]; administered 1 hour before ovalbumine, P.O., dose-dependent",> 90%
same,% of bronchoconstriction,[5]; pretreatment 1 h,3.6 ± 1.2%
same,% of effect,[5]; pretreatment 1 h,-95.8 ± 1.4%
same,% of bronchoconstriction,[5]; pretreatment 3 h,3.3 ± 0.5%
same,% of effect,[5]; pretreatment 3 h,-95.6 ± 0.7%
same,% of bronchoconstriction,[5]; pretreatment 6 h,42.1 ± 19.3%
same,% of effect,[5]; pretreatment 6 h,-43.9 ± 25.8%
same,% of bronchoconstriction,[5]; pretreatment 9 h,83.2 ± 16.1%
same,% of effect,[5]; pretreatment 9 h,-8.8 ± 17.6%
same,% of bronchoconstriction,[5]; pretreatment 15 h,77.5 ± 14.8%
same,% of effect,[5]; pretreatment 15 h,-9.0 ± 17.4%
same,% of bronchoconstriction,[5]; pretreatment 18 h,64.5 ± 19.5%
same,% of effect,[5]; pretreatment 18 h,+17.9 ± 35.7%
same,% of bronchoconstriction,[5]; pretreatment 21 h,73.6 ± 15.5%
same,% of effect,[5]; pretreatment 21 h,+34.4 ± 28.5%
same,"Mortality at 24 hours, % of mortality",[2]; 0.250 mg/kg PO,50%
same,"Mortality at 24 hours, % of variation",[2]; 0.250 mg/kg PO,-18.7%
same,"Mortality at 24 hours, number of killed",[2]; 0.250 mg/kg PO,5/10
same,protective effect (in words),[2]; 0.275 mg/kg P.O.,has no effect
same,"Mortality at 24 hours, % of mortality",[2]; 0.500 mg/kg PO,40%
same,"Mortality at 24 hours, % of variation",[2]; 0.500 mg/kg PO,-35%
same,"Mortality at 24 hours, number of killed",[2]; 0.500 mg/kg PO,4/10
same,Percentage of bronchoconstriction,[1]; 0.1 mg/kg PO,24.7 ± 5.1%
same,Percentage of effect,[1]; 0.1 mg/kg PO,-31.0%
same,Percentage of bronchoconstriction,[1]; 1 mg/kg PO,46.3 ± 11.0%
same,Percentage of effect,[1]; 1 mg/kg PO,+29.3%
same,inhibition of bronchoconstriction (in words),[1]; passively sensitized rats,has no effect
same,ED50,[6],0.0635 µmol/kg
